In US20240182513A1, “SEPARATION OF METAL IONS FROM A SAMPLE USING GLYCOLIPIDS” (ARIZONA BOARD OF REGENTS ON BEHALF OF THE UNIVERSITY OF …, priority 2021, published 2024):

Tests used:
[1] = Example 2.1 rhamnolipid precipitation, filtration, centrifugation: lanthanum; conditions: for Treatment 2: Rhamnolipid and Filtration Cf / Treatment 3: Rhamnolipid and Centrifugation Cc / Treatment 1: Rhamnolipid Only Cr: lanthanum concentration after treatment; for Treatment 2: Rhamnolipid and Filtration (Rf) efficiency of removal / Treatment 3: Rhamnolipid and Centrifugation (Rc) efficiency of removal / Treatment 1: Rhamnolipid Only (Rr) efficiency of removal: lanthanum
Experimental: (§1) Structural variants of synthetic glycolipids were used to show the effect of the number and length of the hydrophobic tail(s) on rhamnolipid as a chemical precipitant. […] Solutions (10 mM) were made using nanopure water (≥18 MΩ-cm) then adjusted to a pH of 6.9±0.05 with HNO3 and NaOH. These solutions were made in advance and stored in the cold room for up to one month. They were brought to room temperature before each experiment.
(§2) Three metals were tested for binding with rhamnolipid. Lead as […] (Fisher Scientific, Waltham, MA, 99% purity), was chosen to represent a metal with high rhamnolipid-metal conditional stability constant; lanthanum as La(NO3)3 6(H2O) (Sigma-Aldrich, St. Louis, MO, 99.99% purity) was chosen as a representative REE; and magnesium as Mg(NO3)2 6(H2O) (Sigma-Aldrich, St. Louis, MO, 99% purity) was chosen to represent a metal with a low rhamnolipid-metal conditional stability constant (Hogan et al., 2017). Metal solutions (5 mM) were made using nanopure water (≥18 MΩ-cm) in 20 ml glass scintillation vials. All solutions were used within 15 min to ensure minimal adsorption to the glass vial.
(§3) Three glycolipid-based treatments were evaluated to remove metal from solution: (1) the addition of glycolipid with no further treatment (gravitational precipitation), (2) the addition of a glycolipid followed by filtration or (3) the addition of a glycolipid followed by centrifugation. Each metal (Pb, La, and Mg) was evaluated separately with each of the glycolipid structures. For each experiment, a metal solution was mixed with a glycolipid solution in a 1.7 ml reaction tube at varying molar ratios of glycolipid to metal: 0:1 (glycolipid-free control), 2:1, 5:1, and 10:1. The reactions were mixed in the order of nanopure water (≥18 MΩ-cm), glycolipid solution (10 mM), then metal solution (5 mM). The metal and glycolipid solutions were continuously stirred as they were aliquoted into the reaction tubes. The experiment was performed in triplicate.
(§4) The reaction tubes were mixed overnight (16 to 24 h) and then three samples were collected from each tube to measure the effect of each of the three treatments: a glycolipid only treatment sample, a filtration treatment sample, and a centrifugation treatment sample. Briefly, for the glycolipid only treatment samples all tubes were vortexed for approximately 5 sec immediately before removing 0.1 ml into a dilution tube of 2% trace metal grade nitric acid (12 to 14 ml) to minimize the settling of particles. For the filtration samples each reaction tube was vortexed for 5 sec and then a 0.6 ml aliquot was collected with a 1 ml syringe. A GHP acrodisc disk filter (hydrophilic polypropylene membrane, 0.45 μm pore size, 25 mm disc diameter) from Pall Life Sciences (Port Washington, New York) was then placed onto the end of the syringe and the solution was pushed through the filter. The void space in the disk filter holds approximately 0.5 ml, therefore around 0.1 ml of filtrate was collected into a dilution tube. For the centrifugation sample, the remaining solution was centrifuged at 10,000 RCF for 15 min. Approximately 0.1 ml of the supernatant was aliquoted into a dilution tube. Following collection, all samples were taken for metal analysis using ICP-MS.

[2] = Example 2.1 rhamnolipid precipitation, filtration, centrifugation: magnesium; conditions: for Treatment 2: Rhamnolipid and Filtration Cf / Treatment 3: Rhamnolipid and Centrifugation Cc / Treatment 1: Rhamnolipid Only Cr: magnesium concentration after treatment; for Treatment 1: Rhamnolipid Only (Rr) efficiency of removal / Treatment 2: Rhamnolipid and Filtration (Rf) efficiency of removal / Treatment 3: Rhamnolipid and Centrifugation (Rc) efficiency of removal: magnesium
Experimental: as §1, §2, §3, §4

[3] = Example 2.1 rhamnolipid precipitation, filtration, centrifugation: lead; conditions: for Treatment 3: Rhamnolipid and Centrifugation Cc / Treatment 1: Rhamnolipid Only Cr / Treatment 2: Rhamnolipid and Filtration Cf: lead concentration after treatment; for Treatment 1: Rhamnolipid Only (Rr) efficiency of removal / Treatment 2: Rhamnolipid and Filtration (Rf) efficiency of removal / Treatment 3: Rhamnolipid and Centrifugation (Rc) efficiency of removal: lead
Experimental: as §1, §2, §3, §4

SMILES: CCCCCCCC(CC(=O)O)OC1O[C@@H](C)[C@H](O)[C@@H](O)[C@H]1O (stereo partly drawn) [Rha C10]
- Treatment 2: Rhamnolipid and Filtration Cf ([1]; molar ratio 2 to 1): 0.096 ± 0.025 mmol/L
- Treatment 3: Rhamnolipid and Centrifugation Cc ([1]; molar ratio 2 to 1): 0.228 ± 0.013 mmol/L
- Treatment 1: Rhamnolipid Only Cr ([1]; molar ratio 5 to 1): 0.246 ± 0.016 mmol/L
- Treatment 2: Rhamnolipid and Filtration Cf ([1]; molar ratio 5 to 1): 0.015 ± 0.010 mmol/L
- Treatment 3: Rhamnolipid and Centrifugation Cc ([1]; molar ratio 5 to 1): 0.088 ± 0.003 mmol/L
- Treatment 1: Rhamnolipid Only Cr ([1]; molar ratio 10 to 1): 0.190 ± 0.004 mmol/L
- Treatment 2: Rhamnolipid and Filtration Cf ([1]; molar ratio 10 to 1): 0.022 ± 0.028 mmol/L
- Treatment 3: Rhamnolipid and Centrifugation Cc ([1]; molar ratio 10 to 1): 0.051 ± 0.010 mmol/L
- Treatment 1: Rhamnolipid Only Cr ([1]; molar ratio rhamnolipid:lanthanum 2 to 1): 0.282 ± 0.009 mmol/L
- Treatment 2: Rhamnolipid and Filtration (Rf) efficiency of removal ([1]; molar ratio 2 to 1): (65.7%)
- Treatment 3: Rhamnolipid and Centrifugation (Rc) efficiency of removal ([1]; molar ratio 2 to 1): (18.6%)
- Treatment 1: Rhamnolipid Only (Rr) efficiency of removal ([1]; molar ratio 5 to 1): (12.3%)
- Treatment 2: Rhamnolipid and Filtration (Rf) efficiency of removal ([1]; molar ratio 5 to 1): (94.6%)
- Treatment 3: Rhamnolipid and Centrifugation (Rc) efficiency of removal ([1]; molar ratio 5 to 1): (68.7%)
- Treatment 1: Rhamnolipid Only (Rr) efficiency of removal ([1]; molar ratio 10 to 1): (32.2%)
- Treatment 2: Rhamnolipid and Filtration (Rf) efficiency of removal ([1]; molar ratio 10 to 1): (92.1%)
- Treatment 3: Rhamnolipid and Centrifugation (Rc) efficiency of removal ([1]; molar ratio 10 to 1): (81.7%)
- Treatment 2: Rhamnolipid and Filtration Cf ([2]; molar ratio 2 to 1): 0.328 ± 0.036 mmol/L
- Treatment 3: Rhamnolipid and Centrifugation Cc ([2]; molar ratio 2 to 1): 0.497 ± 0.014 mmol/L
- Treatment 1: Rhamnolipid Only Cr ([2]; molar ratio 5 to 1): 0.492 ± 0.007 mmol/L
- Treatment 2: Rhamnolipid and Filtration Cf ([2]; molar ratio 5 to 1): 0.283 ± 0.059 mmol/L
- Treatment 3: Rhamnolipid and Centrifugation Cc ([2]; molar ratio 5 to 1): 0.500 ± 0.008 mmol/L
- Treatment 1: Rhamnolipid Only Cr ([2]; molar ratio 10 to 1): 0.503 ± 0.004 mmol/L
- Treatment 2: Rhamnolipid and Filtration Cf ([2]; molar ratio 10 to 1): 0.317 ± 0.073 mmol/L
- Treatment 3: Rhamnolipid and Centrifugation Cc ([2]; molar ratio 10 to 1): 0.490 ± 0.004 mmol/L
- Treatment 1: Rhamnolipid Only Cr ([2]; molar ratio rhamnolipid:magnesium 2 to 1): 0.486 ± 0.021 mmol/L
- Treatment 1: Rhamnolipid Only (Rr) efficiency of removal ([2]; molar ratio 2 to 1): (3.1%)
- Treatment 2: Rhamnolipid and Filtration (Rf) efficiency of removal ([2]; molar ratio 2 to 1): (34.6%)
- Treatment 3: Rhamnolipid and Centrifugation (Rc) efficiency of removal ([2]; molar ratio 2 to 1): (0.8%)
- Treatment 1: Rhamnolipid Only (Rr) efficiency of removal ([2]; molar ratio 5 to 1): (1.8%)
- Treatment 2: Rhamnolipid and Filtration (Rf) efficiency of removal ([2]; molar ratio 5 to 1): (43.6%)
- Treatment 3: Rhamnolipid and Centrifugation (Rc) efficiency of removal ([2]; molar ratio 5 to 1): (0.2%)
- Treatment 2: Rhamnolipid and Filtration (Rf) efficiency of removal ([2]; molar ratio 10 to 1): (36.7%)
- Treatment 3: Rhamnolipid and Centrifugation (Rc) efficiency of removal ([2]; molar ratio 10 to 1): (2.2%)
- Treatment 3: Rhamnolipid and Centrifugation Cc ([3]; molar ratio 2 to 1): 0.320 ± 0.045 mmol/L
- Treatment 1: Rhamnolipid Only Cr ([3]; molar ratio 5 to 1): 0.293 ± 0.006 mmol/L
- Treatment 2: Rhamnolipid and Filtration Cf ([3]; molar ratio 5 to 1): 0.028 ± 0.031 mmol/L
- Treatment 3: Rhamnolipid and Centrifugation Cc ([3]; molar ratio 5 to 1): 0.288 ± 0.002 mmol/L
- Treatment 1: Rhamnolipid Only Cr ([3]; molar ratio 10 to 1): 0.232 ± 0.009 mmol/L
- Treatment 2: Rhamnolipid and Filtration Cf ([3]; molar ratio 10 to 1): 0.001 ± 0.000 mmol/L
- Treatment 3: Rhamnolipid and Centrifugation Cc ([3]; molar ratio 10 to 1): 0.231 ± 0.003 mmol/L
- Treatment 1: Rhamnolipid Only Cr ([3]; molar ratio rhamnolipid:lead 2 to 1): 0.320 ± 0.012 mmol/L
- Treatment 1: Rhamnolipid Only (Rr) efficiency of removal ([3]; molar ratio 2 to 1): (2.7%)
- Treatment 2: Rhamnolipid and Filtration (Rf) efficiency of removal ([3]; molar ratio 2 to 1): (88.8%)
- Treatment 3: Rhamnolipid and Centrifugation (Rc) efficiency of removal ([3]; molar ratio 2 to 1): (2.5%)
- Treatment 1: Rhamnolipid Only (Rr) efficiency of removal ([3]; molar ratio 5 to 1): (10.7%)
- Treatment 2: Rhamnolipid and Filtration (Rf) efficiency of removal ([3]; molar ratio 5 to 1): (91.6%)
- Treatment 3: Rhamnolipid and Centrifugation (Rc) efficiency of removal ([3]; molar ratio 5 to 1): (12.2%)
- Treatment 1: Rhamnolipid Only (Rr) efficiency of removal ([3]; molar ratio 10 to 1): (29.3%)
- Treatment 2: Rhamnolipid and Filtration (Rf) efficiency of removal ([3]; molar ratio 10 to 1): (99.8%)
- Treatment 3: Rhamnolipid and Centrifugation (Rc) efficiency of removal ([3]; molar ratio 10 to 1): (29.7%)
